Patent publication US20260193293A1, “PEPTIDES CAPABLE OF INHIBITING PROTEIN-PROTEIN INTERACTIONS AT GABAB1A SUBUNIT AND USES THEREOF” (UNIVERSITY OF COPENHAGEN, priority 2022, published 2026)
Like-named read-outs stand apart in the source and are kept apart here. Each block holds one compound with its values, some of them ahead of it. Non-standard residues stand in square brackets, D forms with d. Residues, ends and D or L forms follow the SMILES beside them. NMeV = CN[C@H](C(=O)O)C(C)C

Biological target: Sushi domains (SD1/2) protein
Assay: Fluorescence polarization (FP) competition assay with AJAP-1probe, calculated Ki
Type: binding
Details: read-out: Ki (nM) mean ± SEM
Summary of the method: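 Competition against 25 nM TAMRA-labelled peptide probe binding SD1/2, in PBS pH 7.4 with 1% BSA at rt, read at 530/580 nm. IC50 from sigmoidal dose-response fits, at least triplicate; Ki calculated from IC50 using probe Kd from saturation binding.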

[1] = Table 11, deep mutational scanning validation variants of AJAP-1WT

Ki (Table 10, deep mutational scanning validation variants of APPWT): 243 ± 3 nM
Compound: CC[C@H](C)[C@H](NC(=O)[C@H](CO)NC(=O)[C@H](CC(=O)O)NC(=O)[C@H](CC(=O)O)NC(=O)[C@H](CCC(=O)O)NC(C)=O)C(=O)N[C@H](C(=O)N[C@@H](Cc1c[nH]c2ccccc12)C(=O)N[C@@H](Cc1c[nH]c2ccccc12)C(=O)NCC(=O)NCC(=O)N[C@@H](C)C(=O)N[C@@H](CC(=O)O)C(=O)N[C@H](C(=O)N[C@@H](CC(=O)O)C(N)=O)[C@@H](C)O)C(C)C (Ac-EDDSIVWWGGADTD-NH2)

Ki (Table 7, Ala-, D-amino acids and N-methylation scans of APPWT): 12300 ± 375 nM
Compound: CC(=O)N[C@@H](CCC(=O)O)C(=O)N[C@@H](CC(=O)O)C(=O)N[C@@H](CC(=O)O)C(=O)N[C@@H](CO)C(=O)N[C@@H](CC(=O)O)C(=O)N(C)[C@H](C(=O)N[C@@H](Cc1c[nH]c2ccccc12)C(=O)N[C@@H](Cc1c[nH]c2ccccc12)C(=O)NCC(=O)NCC(=O)N[C@@H](C)C(=O)N[C@@H](CC(=O)O)C(=O)N[C@H](C(=O)N[C@@H](CC(=O)O)C(N)=O)[C@@H](C)O)C(C)C (Ac-EDDSD[NMeV]WWGGADTD-NH2)

Ki (Table 11, cells printed in μM): > 6250 nM
Compound: CC[C@H](C)[C@H](NC(=O)[C@H](CCCCN)NC(=O)[C@H](CCC(=O)O)NC(=O)[C@@H](NC(=O)[C@H](CCC(=O)O)NC(C)=O)[C@@H](C)O)C(=O)N[C@@H](C)C(=O)N[C@@H](Cc1c[nH]c2ccccc12)C(=O)NCC(=O)N1CCC[C@H]1C(=O)N[C@H](C(=O)NCC(=O)N[C@@H](CC(=O)O)C(=O)N[C@@H](CCC(=O)O)C(=O)N[C@@H](CC(=O)O)C(N)=O)[C@@H](C)O [ETEKIAWGPTGDED] (Ac-ETEKIAWGPTGDED-NH2)

Ki [1]: 40 ± 1 nM
Compound: CC[C@H](C)[C@H](NC(=O)[C@H](Cc1ccccc1)NC(=O)[C@H](CCC(=O)O)NC(=O)[C@@H](NC(=O)[C@H](CCC(=O)O)NC(C)=O)[C@@H](C)O)C(=O)N[C@@H](C)C(=O)N[C@@H](Cc1c[nH]c2ccccc12)C(=O)NCC(=O)N1CCC[C@H]1C(=O)N[C@H](C(=O)NCC(=O)N[C@@H](CC(=O)O)C(=O)N[C@@H](Cc1ccc(O)cc1)C(=O)N[C@@H](CC(=O)O)C(N)=O)[C@@H](C)O (Ac-ETEFIAWGPTGDYD-NH2)

Ki (Table 9, Ala-, D-amino acids and N-methylation scans of PIANPWT): 1780 ± 87 nM
Compound: CC[C@H](C)[C@H](NC(=O)[C@H](C)NC(=O)[C@H](Cc1c[nH]c2ccccc12)NC(=O)[C@@H]1CCCN1C(C)=O)C(=O)N[C@H](C(=O)N[C@@H](Cc1c[nH]c2ccccc12)C(=O)NCC(=O)N1CCC[C@H]1C(=O)N[C@H](C(=O)N(C)[C@H](C(=O)N[C@@H](CO)C(=O)N[C@@H](CCCNC(=N)N)C(=O)N[C@@H](CCC(=O)O)C(=O)N[C@@H](CC(=O)O)C(N)=O)C(C)C)[C@@H](C)O)C(C)C (Ac-PWAIVWGPT[NMeV]SRED-NH2)

Ki [1]: 39 ± 2 nM
Compound: CC[C@H](C)[C@H](NC(=O)[C@H](Cc1ccccc1)NC(=O)[C@H](CCC(=O)O)NC(=O)[C@@H](NC(=O)[C@H](CCC(=O)O)NC(C)=O)[C@@H](C)O)C(=O)N[C@@H](C)C(=O)N[C@@H](Cc1c[nH]c2ccccc12)C(=O)NCC(=O)N1CCC[C@H]1C(=O)N[C@H](C(=O)NCC(=O)N[C@@H](CC(=O)O)C(=O)N[C@@H](CCC(=O)O)C(=O)N[C@@H](Cc1c[nH]cn1)C(N)=O)[C@@H](C)O

Ki (Table 14, CPPs tagged peptides): 15 ± 1 nM
Compound: CC[C@H](C)[C@H](NC(=O)[C@H](Cc1c[nH]c2ccccc12)NC(=O)[C@H](CC(=O)O)NC(=O)[C@H](CC(=O)O)NC(=O)[C@H](CC(=O)O)NC(=O)[C@H](CCC(=O)O)NC(=O)[C@H](CCCNC(=N)N)NC(=O)[C@H](CCCNC(=N)N)NC(=O)[C@H](CCCNC(=N)N)NC(=O)[C@H](CCCNC(=N)N)NC(C)=O)C(=O)N[C@@H](CC(=O)O)C(=O)N[C@@H](Cc1c[nH]c2ccccc12)C(=O)NCC(=O)N1CCC[C@H]1C(=O)N[C@H](C(=O)N[C@@H](CO)C(=O)N[C@@H](CC(=O)O)C(=O)N[C@@H](CC(=O)O)C(=O)N[C@@H](CC(=O)O)C(N)=O)[C@@H](C)O [Peptide 4R-17] (Ac-RRRREDDDWIDWGPTSDDD-NH2)
